# No end group written: not given here.
# How the values were obtained:
# [1] = system: rat aortic smooth muscle cells (RASMCs); test: RASMC proliferation (PCNA immunostaining, EZ-CyTox cell viability assay); format: cell-based; details: synthetic conditions (10% FBS), 3 μM peptide
# Procedure: The rat aortic smooth muscle cells (RASMCs) were isolated from the medial layer of the thoracic aorta derived from male Sprague-Dawley rats (body weight, 180-200 g) by an enzymatic reaction with collagenase (50 U/mL, Worthington) and pancreatic elastase (0.25 mg/mL, Sigma-Aldrich) for 4 hours at 37. The cells were collected and resuspended in DMEM containing 20% (v/v) fetal bovine serum. The resuspension was then plated on collagen I (Sigma-Aldrich)-coated glass coverslips and incubated at 37 in an atmosphere of 5% (v/v) CO2 and 95% (v/v) air. Human coronary smooth muscle cells (HCSMCs), pulmonary arterial endothelial cells (PAECs), and pulmonary arterial smooth muscle cells (PASMCs) were purchased from Lonza and cultured in EBM or SmBM (Lonza) supplemented with 0.5 mg/mL hEGF, […], 1 mg/mL hFGF, […] gentamicin/amphotericin-B, and 5% fetal bovine serum. All the cells were cultured at 37 in 5% (v/v) CO2 and 95% (v/v) air. RASMCs and HCSMCs were, respectively, plated at the densities of 1×10^4 cells/cm^2 and 1×10^5 cells/cm^2 for immunostaining and western blotting experiments. For RASMC and PASMC cell proliferation experiments, these cells were cultured in fetal bovine serum-free media for 3 days, and then proliferation was induced by serum addition.
# Rat aortic smooth muscle cells (RASMCs) were fixed in 4% (w/v) paraformaldehyde at room temperature for 10 min, washed with PBS, and then transmitted with 0.1% (v/v) Triton X-100 in PBS for 40 min. After washing and blocking with 3% (w/v) BSA in PBS, the cells were incubated overnight at room temperature with antibodies against SERCA2a (1:250), SERCA2b (1:250), and PCNA (1:50). On the following day, the cells were washed with PBS and incubated with anti-rabbit and anti-mouse IgG conjugated to Alexa Fluor 488 and 594, respectively, for 1 hour at room temperature. The cells were treated with FluoroGuard antifade reagent (Bio-Rad, Hercules, Calif., USA), and the coverslips were examined under a fluorescent microscope. […]
# RASMCs = test: In vitro cell scratch assay (RASMC migration); format: cell-based, rat; details: 3 μM peptide
# Procedure: RASMCs isolated from the thoracic aorta were cultured in DMEM supplemented with 0.1% (v/v) FBS (Contractile) or in DMEM supplemented with 10% (v/v) FBS (Synthetic) in the presence of 3 μM of control peptide (Con; SEQ ID NO: 23) or ψPLB-SE peptide (SEQ ID NO: 2). Alternatively, RASMC cultured in DMEM supplemented with 0.1% (v/v) FBS were treated with 10 ng/ml of PDGF-BB (R&D Systems) (Synthetic) in the presence of 3 μM control or ψPLB-SE peptide. A region of the RASMC layer was removed by scratching the plate with a sterile 200 μL pipette tip. The cells were incubated for 12 hours or 24 hours and then observed under an 1×80 microscope (Olympus). The distance traveled by the cells was measured using MetaMorph software.
# cytosolic Ca^2+ level [2] = test: Intracellular Ca2+ measurement in HCSMCs; format: cell-based, human; details: HCSMCs pretreated 1 hour with 3 μM ψPLB-SE or 15 μM MDL28170, then 50 μM A23187 2 hours
# Procedure: (§1) FIGS. 4a, 4b, 4c and 4d. (4a-4c) HCSMCs were pretreated with 3 μM ψPLB-SE and 15 μM MDL28170 for 1 hour, and then treated with 50 μM A23187 for 2 hours. (4a) Immunostaining was performed with antibodies against SERCA2a and SERCA2b (green). Nuclei were stained with Hoechst (blue). Representative merged images are shown. Scale bar, 50 μm. (4b) Western blot analysis was performed with cell extracts. Data are expressed as the means±SD (n=3-4; *, P<0.05). (4c) Baseline Ca^2+ concentration was measured by lonOptix calcium imaging system. (4d) RASMC were treated with ψPLB-SE or control peptide under the same conditions as described for FIG. 1B. The baseline Ca^2+ concentration was measured by lonOptix calcium imaging system (*, P<0.05).
# The intracellular Ca^2+ level was measured in VSMCs by loading cells with 0.5 μM Fura2-AM (Molecular Probes, Eugene Oreg., USA), a Ca^2+-sensitive indicator, for 15 minutes at 37. The fluorescence was recorded using the lonOptix calcium imaging system. VSMCs were stimulated by the exposure to light emitted by a 75 W halogen lamp through either a 340 nm or 380 nm filter. The fluorescent emissions were detected between 480 nm and 520 nm by a photomultiplier tube after an initial illumination at 340 nm for 0.5 second and then at 380 nm during recording. The 340 nm excitation scan was repeated at the end of the protocol, and qualitative changes in the intracellular Ca^2+ level were inferred from the ratio of the Fura2 fluorescent intensity at both wavelengths.
# cytosolic Ca^2+ level [3] = test: Intracellular Ca2+ measurement in RASMCs; format: cell-based, rat; details: 10% FBS, 3 μM peptide
# Procedure: as §1
# The intracellular Ca^2+ level was measured in VSMCs by loading cells with 0.5 μM Fura2-AM (Molecular Probes, Eugene Oreg., USA), a Ca^2+-sensitive indicator, for 15 minutes at 37. The fluorescence was recorded using the lonOptix calcium imaging system. VSMCs were stimulated by the exposure to light emitted by a 75 W halogen lamp through either a 340 nm or 380 nm filter. The fluorescent emissions were detected between 480 nm and 520 nm by a photomultiplier tube after an initial illumination at 340 nm for 0.5 second and then at 380 nm during recording. […]
# phospholamban = test: PLB phosphorylation in PASMCs (western blotting); format: cell-based; details: synthetic phenotype, 3 μM
# Procedure: PASMCs were incubated in DMEM supplemented with 0.1% (v/v) FBS for 3 days to induce a contractile phenotype, followed by incubation in DMEM supplemented with 10% (v/v) FBS for 3 days to induce a synthetic phenotype in the presence of 3 μM ψPLB-SE. (18a) Protein expression was quantitatively analyzed through western blotting using antibodies against phospho-PLB (ser16), total PLB, and GAPDH. Data are expressed as the means±SD (n=3˜4; *, P<0.05 vs contractile; #, P<0.05 vs Synthetic-con).
# Human coronary smooth muscle cells (HCSMCs), pulmonary arterial endothelial cells (PAECs), and pulmonary arterial smooth muscle cells (PASMCs) were purchased from Lonza and cultured in EBM or SmBM (Lonza) supplemented with 0.5 mg/mL hEGF, 5 mg/mL insulin, 1 mg/mL hFGF, 50 mg/mL gentamicin/amphotericin-B, and 5% fetal bovine serum. All the cells were cultured at 37 in 5% (v/v) CO2 and 95% (v/v) air. RASMCs and HCSMCs were, respectively, plated at the densities of 1×10^4 cells/cm^2 and 1×10^5 cells/cm^2 for immunostaining and western blotting experiments.
# Vascular smooth muscle cells (VSMCs) were homogenized in a minimal volume of 50 mM Tris-HCl, pH 7.4, supplemented with a broad-spectrum protease inhibitor cocktail (Calbiochem). […] The blots were scanned and quantified using LAS software.
# SERCA2a [4] = test: Calcium uptake assay (SERCA2a activity) in PASMCs; format: biochemical; details: synthetic phenotype, 3 μM
# Procedure: Pulmonary arterial smooth muscle cells (PASMCs) were homogenized in a solution of pH 7.0 containing 40 mM imidazole, 10 mM NaF, 1 mM EDTA, 300 mM sucrose, and 0.5 mM DTT, and 250 μg of the lysate was added to an uptake buffer of pH 7.0 containing 100 mM KCl, 5 mM MgCl2, 5 mM NaN3, […], and 40 mM imidazole, and calcium uptake assay was performed with a calcium concentration of pCa 6, containing radioactive isotopes. The cells were treated with 1 μM ruthenium red (Sigma Aldrich), followed by waiting at 37° C. for 3 min, and then treated with 5 mM K-oxalate and Mg-ATP (Sigma Aldrich). In addition, 500 μl of the reaction material was filtered out through a 0.45 μm filter (Millipore) from the start of a reaction to 4 minutes at intervals of 1 minute, and cpm (count per minute) was measured using a scintillation counter (Beckman).
# SERCA2a [5] = details: in vitro and ex vivo; Oh J G et al. (2013); cited from earlier work
sequence,measurement,setting,value
"RAETIEMPQ (not fully specified) [ψPLB-SE, 9-mer PP1 decoy peptide mimicking phosphorylated PLB; conjugated via GGG linker to cell penetrating peptide dNP2 or TAT]",PCNA expression (active cell division),[1]; RASMCs,completely blocked
same,increased proliferation of RASMCs (cell proliferation assay),[1]; 24 hours,inhibited
same,increased migratory activity of RASMCs,RASMCs; synthetic conditions (10% FBS),inhibited
same,increased migratory activity of RASMCs,RASMCs; treatment with PDGF-BB 10 ng/ml,inhibited
same,elevation of the cytosolic Ca^2+ level by A23187,cytosolic Ca^2+ level [2],normalized
same,cytosolic Ca^2+ level elevated under synthetic conditions,cytosolic Ca^2+ level [3],decreased
same,phosphorylation of the serine 16 residue of phospholamban,phospholamban,restored
same,SERCA2a activity (Ca^2+ uptake assay),SERCA2a [4],restored
same,SERCA2a activity in the heart after ischemia/reperfusion,SERCA2a [5],restored

# — patent US11426441B2, “Composition comprising protein phosphatase 1 inhibitory peptide for treating vascular diseases” (BethphaGen Inc., priority 2016, dated 2022)
